Laboratory results taken from US12473304B2, “Heterocyclic PAD4 inhibitors” (BRISTOL-MYERS SQUIBB COMPANY, priority 2020, dated 2025).

molecular target: human PAD4 (hPAD4) (Homo sapiens (Human), UniProt Q9UM07); experiment: RFMS Human PAD4 Functional Assay 1; format: biochemical; conditions: RFMS assay 1; 5 nM hPAD4, 250 μM BAEE substrate, 50 μM calcium, 37° C.
Summary of the method: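 Recombinant hPAD4 (5 nM) was preincubated with compound (top 50 μM, 0.5% DMSO) for 30 min at 37 °C, then reacted with 250 μM BAEE for 90 min at 37 °C in pH 7.5 HEPES buffer with 50 μM calcium and 5 μM TPEN. Product was derivatized with phenyl glyoxal and quantified by RapidFire MS.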

Sequence of human PAD4 (hPAD4) (Q9UM07 whole entry): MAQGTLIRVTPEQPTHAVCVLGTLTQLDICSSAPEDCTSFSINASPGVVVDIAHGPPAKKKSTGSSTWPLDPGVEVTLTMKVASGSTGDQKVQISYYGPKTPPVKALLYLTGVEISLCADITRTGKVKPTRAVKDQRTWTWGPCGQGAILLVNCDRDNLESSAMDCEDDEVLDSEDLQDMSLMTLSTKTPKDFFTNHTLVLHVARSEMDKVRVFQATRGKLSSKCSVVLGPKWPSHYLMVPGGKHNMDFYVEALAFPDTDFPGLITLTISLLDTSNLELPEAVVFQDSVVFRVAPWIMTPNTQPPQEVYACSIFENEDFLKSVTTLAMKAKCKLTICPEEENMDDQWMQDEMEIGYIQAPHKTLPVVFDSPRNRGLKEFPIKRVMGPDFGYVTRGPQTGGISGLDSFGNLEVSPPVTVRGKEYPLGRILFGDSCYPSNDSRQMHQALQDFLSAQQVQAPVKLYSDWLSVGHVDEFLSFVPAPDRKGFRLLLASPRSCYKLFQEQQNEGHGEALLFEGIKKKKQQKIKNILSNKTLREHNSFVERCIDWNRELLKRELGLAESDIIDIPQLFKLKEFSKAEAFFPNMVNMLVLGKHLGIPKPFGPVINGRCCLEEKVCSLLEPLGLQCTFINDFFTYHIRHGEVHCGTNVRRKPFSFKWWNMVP

For `Cc1c(-c2cc3cccc(C4CN(C(=O)[C@H]5CC[C@H](O)CC5)C4)c3n2CC2CC2)nn2cc(C(=O)N3C[C@H](N)C[C@@H](F)C3)ccc12` [Example 537, ((3R,5R)-3-Amino-5-fluoropiperidin-1-yl)(2-(1-(cyclopropylmethyl)-7-(1-((1r,4r)-4-hydroxycyclohexane-1-carbonyl)azetidin-3-yl)-1H-indol-2-yl)-3-methylpyrazolo[1,5-a]pyridin-6-yl)methanone], which IC50 is on record?
Its IC50 is 70 nM.

How did the IC50 turn out when `Cc1c(-c2cc3cccc(C4CN(C(=O)[C@H]5CC[C@@H](O)CC5)C4)c3n2CC2CC2)nn2cc(C(=O)N3C[C@H](N)C[C@@H](F)C3)ccc12` [Example 538, ((3R,5R)-3-Amino-5-fluoropiperidin-1-yl)(2-(1-(cyclopropylmethyl)-7-(1-((1s,4s)-4-hydroxycyclohexane-1-carbonyl)azetidin-3-yl)-1H-indol-2-yl)-3-methylpyrazolo[1,5-a]pyridin-6-yl)methanone] was run?
Its IC50 is 40 nM.

How did the IC50 turn out when `Cc1c(-c2cc3cccc(C4CN(C(=O)[C@H]5CC[C@@H](O)CC5)C4)c3n2CC2CC2)nn2cc(C(=O)N3CCC[C@@H](N)C3)ccc12` [Example 539, ((R)-3-Aminopiperidin-1-yl)(2-(1-(cyclopropylmethyl)-7-(1-((1s,4s)-4-hydroxycyclohexane-1-carbonyl)azetidin-3-yl)-1H-indol-2-yl)-3-methylpyrazolo[1,5-a]pyridin-6-yl)methanone] was run?
The IC50 was 130 nM.

For `CO[C@H](C)C(=O)N1CC(c2cccc3cc(-c4nn5cc(C(=O)N6C[C@H](N)C[C@@H](F)C6)ccc5c4C)n(CC4CC4)c23)C1` [Example 540, (R)-1-(3-(2-(6-((3R,5R)-3-Amino-5-fluoropiperidine-1-carbonyl)-3-methylpyrazolo[1,5-a]pyridin-2-yl)-1-(cyclopropylmethyl)-1H-indol-7-yl)azetidin-1-yl)-2-methoxypropan-1-one], which IC50 is on record?
Its IC50 is 1100 nM.

`CO[C@H](C)C(=O)N1CC(c2cccc3cc(-c4nn5cc(C(=O)N6CCC[C@@H](N)C6)ccc5c4C)n(CC4CC4)c23)C1` [Example 541, (R)-1-(3-(2-(6-((R)-3-Aminopiperidine-1-carbonyl)-3-methylpyrazolo[1,5-a]pyridin-2-yl)-1-(cyclopropylmethyl)-1H-indol-7-yl)azetidin-1-yl)-2-methoxypropan-1-one] was tested. Which IC50 did it give?
Its IC50 is 2530 nM.

How did the IC50 turn out when `CO[C@@H](C)C(=O)N1CC(c2cccc3cc(-c4nn5cc(C(=O)N6C[C@H](N)C[C@@H](F)C6)ccc5c4C)n(CC4CC4)c23)C1` [Example 542, (S)-1-(3-(2-(6-((3R,5R)-3-Amino-5-fluoropiperidine-1-carbonyl)-3-methylpyrazolo[1,5-a]pyridin-2-yl)-1-(cyclopropylmethyl)-1H-indol-7-yl)azetidin-1-yl)-2-methoxypropan-1-one] was run?
Its IC50 is 580 nM.

Which IC50 does the source give for `CO[C@@H](C)C(=O)N1CC(c2cccc3cc(-c4nn5cc(C(=O)N6CCC[C@@H](N)C6)ccc5c4C)n(CC4CC4)c23)C1` [Example 543, (S)-1-(3-(2-(6-((R)-3-aminopiperidine-1-carbonyl)-3-methylpyrazolo[1,5-a]pyridin-2-yl)-1-(cyclopropylmethyl)-1H-indol-7-yl)azetidin-1-yl)-2-methoxypropan-1-one] here?
Its IC50 is 630 nM.

`COCC(=O)N1CC(c2cccc3cc(-c4nn5cc(C(=O)N6CCC[C@@H](N)C6)ccc5c4C)n(CC4CC4)c23)C1` [Example 546, (R)-1-(3-(2-(6-(3-Aminopiperidine-1-carbonyl)-3-methylpyrazolo[1,5-a]pyridin-2-yl)-1-(cyclopropylmethyl)-1H-indol-7-yl)azetidin-1-yl)-2-methoxyethan-1-one] was tested. Which IC50 did it give?
Its IC50 is 560 nM.

Which IC50 does the source give for `COCC(=O)N1CC(c2cccc3cc(-c4nn5cc(C(=O)N6C[C@H](N)C[C@@H](F)C6)ccc5c4C)n(CC4CC4)c23)C1` [Example 547, 1-(3-(2-(6-((3R,5R)-3-Amino-5-fluoropiperidine-1-carbonyl)-3-methylpyrazolo[1,5-a]pyridin-2-yl)-1-(cyclopropylmethyl)-1H-indol-7-yl)azetidin-1-yl)-2-methoxyethan-1-one] here?
The IC50 was 490 nM.

With `CC(=O)N1CC(c2cccc3cc(-c4nn5cc(C(=O)N6C[C@H](N)C[C@@H](F)C6)ccc5c4C)n(CC4CC4)c23)C1` [Example 548, 1-(3-(2-(6-((3R,5R)-3-Amino-5-fluoropiperidine-1-carbonyl)-3-methylpyrazolo[1,5-a]pyridin-2-yl)-1-(cyclopropylmethyl)-1H-indol-7-yl)azetidin-1-yl)ethan-1-one] as the compound, how does the IC50 read?
The IC50 was 170 nM.

How did the IC50 turn out when `CC(=O)N1CC(c2cccc3cc(-c4nn5cc(C(=O)N6CC7CCC6[C@@H]7N)ccc5c4C)n(CC4CC4)c23)C1` (stereo partly drawn) [Example 549, 1-(3-(2-(6-((7R)-7-Amino-2-azabicyclo[2.2.1]heptane-2-carbonyl)-3-methylpyrazolo[1,5-a]pyridin-2-yl)-1-(cyclopropylmethyl)-1H-indol-7-yl)azetidin-1-yl)ethan-1-one] was run?
The IC50 was 10 nM.

For `COc1cc(C(=O)N2C[C@H](N)C[C@@H](F)C2)cn2nc(-c3cc4cccc(OC[C@H]5CCC(=O)N5)c4n3CC3CC3)c(C)c12` [Example 550, (R)-5-(((2-(6-((3R,5R)-3-amino-5-fluoropiperidine-1-carbonyl)-4-methoxy-3-methylpyrazolo[1,5-a]pyridin-2-yl)-1-(cyclopropylmethyl)-1H-indol-7-yl)oxy)methyl)pyrrolidin-2-one], which IC50 is on record?
The IC50 was 50 nM.

`COc1cc(C(=O)N2CCC[C@@H](N)C2)cn2nc(-c3cc4cccc(OCCn5cncn5)c4n3CC3CC3)c(C)c12` [Example 555, (R)-(2-(7-(2-(1H-1,2,4-Triazol-1-yl)ethoxy)-1-(cyclopropylmethyl)-1H-indol-2-yl)-4-methoxy-3-methylpyrazolo[1,5-a]pyridin-6-yl)(3-aminopiperidin-1-yl)methanone] was tested. Which IC50 did it give?
The IC50 was 30 nM.

Which IC50 does the source give for `COc1cc(C(=O)N2C[C@H](N)C[C@@H](F)C2)cn2nc(-c3cc4cccc(OCCn5cncn5)c4n3CC3CC3)c(C)c12` [Example 556, (2-(7-(2-(1H-1,2,4-Triazol-1-yl)ethoxy)-1-(cyclopropylmethyl)-1H-indol-2-yl)-4-methoxy-3-methylpyrazolo[1,5-a]pyridin-6-yl)((3R,5R)-3-amino-5-fluoropiperidin-1-yl)methanone] here?
Its IC50 is 20 nM.

With `COc1cc(C(=O)N2C[C@H](N)C[C@@H](F)C2)cn2nc(-c3cc4cccc(OCCn5cc(N)cn5)c4n3CC3CC3)c(C)c12` [Example 557, (2-(7-(2-(4-Amino-1H-pyrazol-1-yl)ethoxy)-1-(cyclopropylmethyl)-1H-indol-2-yl)-4-methoxy-3-methylpyrazolo[1,5-a]pyridin-6-yl)((3R,5R)-3-amino-5-fluoropiperidin-1-yl)methanone] as the compound, how does the IC50 read?
Its IC50 is 10 nM.

`COc1cc(C(=O)N2CCC[C@@H](N)C2)cn2nc(-c3cc4cccc(OCCn5cc(N)cn5)c4n3CC3CC3)c(C)c12` [Example 558, (R)-(2-(7-(2-(4-Amino-1H-pyrazol-1-yl)ethoxy)-1-(cyclopropylmethyl)-1H-indol-2-yl)-4-methoxy-3-methylpyrazolo[1,5-a]pyridin-6-yl)(3-aminopiperidin-1-yl)methanone] was tested. Which IC50 did it give?
The IC50 was 100 nM.

For `COc1cc(C(=O)N2CCC[C@@H](N)C2)cn2nc(-c3cc4cccc(OC[C@@H]5CCC(=O)N5)c4n3CC3CC3)c(C)c12` [Example 559, (S)-5-(((2-(6-((R)-3-Aminopiperidine-1-carbonyl)-4-methoxy-3-methylpyrazolo[1,5-a]pyridin-2-yl)-1-(cyclopropylmethyl)-1H-indol-7-yl)oxy)methyl)pyrrolidin-2-one], which IC50 is on record?
The IC50 was 80 nM.
